Data: the supplement of paper PMC10331698
± gives the standard deviation of the averaged measurements.

Experiments:
Experiment in all cases: level (log10 ratio to DMSO vehicle control); higher = higher biomarker level / cell amount than vehicle control
Settings in all cases: in DMSO
[1] = compound: O=C(O)CCC(F)(F)C(F)(F)C(F)(F)F [3:3 Fluorotelomer carboxylic acid]
Experimental: (§1)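 BioMAP Diversity Plus panel of 12 human primary cell co-culture systems (3C, 4H, LPS, SAg, BT, BF4T, BE3C, CASM3C, HDF3CGF, KF3CT, MyoF, Mphg). Compounds were added 1 h before stimulation and left for 24 h (MyoF 48 h; BT 72 h for soluble read-outs or 6 d for IgG). Biomarkers were read by ELISA, cytotoxicity by SRB, PBMC viability and proliferation by Alamar Blue. Each well value was divided by the mean of 8 DMSO control wells on the same plate and log10 transformed; duplicate blinded samples were tested at 4 concentrations.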

Perfluorooctanamidine = compound: N=C(N)C(F)(F)C(F)(F)C(F)(F)C(F)(F)C(F)(F)C(F)(F)C(F)(F)F [Perfluorooctanamidine]
Experimental: as §1

1-(Perfluorohexyl)octane = compound: CCCCCCCCC(F)(F)C(F)(F)C(F)(F)C(F)(F)C(F)(F)C(F)(F)F [1-(Perfluorohexyl)octane]
Experimental: as §1

[2] = compound: O=C(O)C(F)(F)C(F)(F)C(F)(F)C(F)(F)C(F)(F)C(F)(F)C(F)(F)C(F)(F)C(F)(F)C(F)(F)C(F)(F)C(F)(F)F [Perfluorotridecanoic acid]
Experimental: as §1

[3] = compound: OCC(F)(F)C(F)(F)C(F)(F)C(F)(F)C(F)(F)C(F)F [1H,1H,7H-Dodecafluoro-1-heptanol]
Experimental: as §1

[4] = compound: O=S(=O)(O)C(F)(F)C(F)(F)C(F)(F)C(F)(F)C(F)(F)C(F)(F)C(F)(F)C(F)(F)F [Potassium perfluorooctanesulfonate]
Experimental: as §1

Test System | level (log10) ([1]; 6700 nM) | level (log10) ([1]; 20000 nM) | level (log10) ([1]; 60000 nM) | level (log10) (Perfluorooctanamidine; 6700 nM) | level (log10) (Perfluorooctanamidine; 20000 nM) | level (log10) (Perfluorooctanamidine; 60000 nM) | level (log10) (1-(Perfluorohexyl)octane; 6700 nM) | level (log10) (1-(Perfluorohexyl)octane; 20000 nM) | level (log10) ([2]; 1500 nM) | level (log10) ([2]; 4400 nM) | level (log10) ([2]; 13000 nM) | level (log10) ([2]; 40000 nM) | level (log10) ([3]; 6700 nM) | level (log10) ([3]; 20000 nM) | level (log10) ([3]; 60000 nM) | level (log10) ([4]; 6700 nM) | level (log10) ([4]; 20000 nM) | level (log10) ([4]; 60000 nM)
LPS:CXCL8/IL-8 | 0.004 ± 0.0042 | -0.0105 ± 0.0021 | 0.0165 ± 0.03 | -0.019 ± 0.027 | -0.005 ± 0.016 | -0.028 | 0.0335 ± 0.00071 | 0.0405 ± 0.026 | -0.011 ± 0.041 | -0.058 ± 0.041 | -0.0065 ± 0.042 | 0.016 ± 0.11 | 0.0055 ± 0.029 | 0.0005 ± 0.022 | 0.0025 ± 0.011 | 0.0255 ± 0.067 | 0.0435 ± 0.0092 | 0.061 ± 0.05
BT:B cell Proliferation | -0.018 ± 0.0085 | -0.0115 ± 0.042 | -0.011 ± 0.02 | -0.0005 ± 0.011 | -0.002 ± 0.017 | -0.086 | 0.0145 ± 0.011 | 0.012 ± 0.011 | -0.0035 ± 0.052 | 0.029 ± 0.016 | 0.01 ± 0.011 | 0.0265 ± 0.035 | -0.014 ± 0.0028 | -0.035 ± 0.0014 | -0.04 ± 0.02 | 0.031 ± 0.016 | 0.0425 ± 0.018 | 0.0795 ± 0.005
SAg:PBMC Cytotoxicity | -0.022 ± 0.0071 | -0.014 ± 0.031 | -0.0045 ± 0.035 | 0.011 ± 0.021 | 0.003 ± 0.016 | -0.263 | 0.023 ± 0.011 | 0.023 ± 0.017 | -0.0045 ± 0.021 | 0.0025 ± 0.0021 | -0.061 ± 0.042 | -0.0085 ± 0.028 | 0.001 ± 0.0099 | 0.028 ± 0.067 | -0.039 ± 0.0028 | 0.0165 ± 0.0092 | 0.012 ± 0.013 | 0.0315 ± 0.029
BF4T:MMP-3 | 0.0285 ± 0.042 | 0.0005 ± 0.033 | 0.018 ± 0.023 | 0.0035 ± 0.032 | 0.003 ± 0.055 | 0.148 | 0.005 ± 0.0057 | -0.0135 ± 0.016 | 0.042 ± 0.054 | -0.0155 ± 0.061 | 0.0115 ± 0.032 | 0.0155 ± 0.012 | -0.01 ± 0.034 | -0.012 ± 0.038 | 0.001 ± 0.04 | 0.0175 ± 0.028 | 0.0635 ± 0.026 | 0.087 ± 0.065
BE3C:CD54/ICAM-1 | -0.009 ± 0.0042 | 0.017 ± 0.02 | 0.002 ± 0.0057 | -0.017 ± 0.0028 | -0.019 ± 0.0057 | 0.027 | 0.0045 ± 0.011 | -0.0025 ± 0.0021 | 0.0015 ± 0.04 | -0.0285 ± 0.015 | -0.011 ± 0.0085 | 0.0035 ± 0.0021 | 0.0205 ± 0.029 | 0.01 ± 0.027 | 0.0145 ± 0.012 | 0.027 ± 0.0028 | 0.074 ± 0.024 | 0.0575 ± 0.0064
SAg:CD38 | -0.012 ± 0.024 | 0.008 ± 0.013 | 0.0015 ± 0.0035 | 0.009 ± 0.017 | 0.001 ± 0.013 | -0.074 | 0.0015 ± 0.0078 | 0.0105 ± 0.00071 | -0.017 ± 0.014 | -0.037 ± 0.02 | -0.0245 ± 0.018 | -0.027 ± 0.0028 | 0.0005 ± 0.013 | 0.0105 ± 0.019 | 0.0075 ± 0.022 | -0.0085 ± 0.0092 | -0.01 ± 0.013 | -0.023 ± 0.02
LPS:CD62E/E-Selectin | -0.0045 ± 0.015 | -0.016 ± 0.0057 | 0.0075 ± 0.011 | 0.0135 ± 0.00071 | -0.009 ± 0.013 | 0.019 | -0.005 ± 0.031 | 0.0115 ± 0.029 | 0.004 ± 0.02 | 0.0025 ± 0.028 | -0.002 ± 0.0085 | -0.0065 ± 0.005 | 0.0045 ± 0.0064 | -0.005 ± 0.013 | -0.009 ± 0.014 | 0.0005 ± 0.037 | 0.0035 ± 0.00071 | 0.0205 ± 0.00071
SAg:CD69 | 0.001 ± 0.04 | -0.005 ± 0.023 | -0.021 ± 0.0057 | 0.006 ± 0.03 | -0.0035 ± 0.019 | -0.036 | -0.0045 ± 0.011 | -0.0045 ± 0.028 | -0.0075 ± 0.037 | -0.053 ± 0.03 | -0.0305 ± 0.025 | -0.0685 ± 0.0078 | -0.004 ± 0.013 | -0.0015 ± 0.021 | -0.002 ± 0.016 | -0.0075 ± 0.013 | -0.002 ± 0.014 | -0.002 ± 0.021
LPS:sPGE2 | -0.0115 ± 0.0092 | -0.0165 ± 0.036 | 0.0205 ± 0.025 | -0.019 ± 0.031 | -0.078 ± 0.031 | -0.06 | 0.011 ± 0.018 | 0.02 ± 0.0042 | 0.0325 ± 0.016 | 0.0275 ± 0.049 | -0.052 ± 0.034 | -0.022 ± 0.061 | -0.0455 ± 0.066 | -0.0115 ± 0.016 | -0.011 ± 0.0057 | -0.033 ± 0.042 | -0.0005 ± 0.03 | -0.053 ± 0.096
BE3C:CXCL11/I-TAC | -0.004 ± 0.021 | 0.0045 ± 0.005 | 0.0005 ± 0.0035 | -0.0055 ± 0.0078 | -0.014 ± 0.016 | -0.014 | 0.003 ± 0.016 | -0.0035 ± 0.0021 | 0.007 ± 0.0014 | -0.048 ± 0.027 | -0.089 ± 0.021 | 0 ± 0.0085 | 0.003 ± 0.02 | 0.0115 ± 0.012 | 0.007 ± 0.021 | -0.002 ± 0.0042 | -0.113 ± 0.012 | -0.203 ± 0.024
4H:CCL2/MCP-1 | -0.032 ± 0.048 | -0.0525 ± 0.012 | 0.007 ± 0.013 | 0.0095 ± 0.011 | -0.0055 ± 0.0064 | 0.061 | -0.0525 ± 0.019 | -0.0495 ± 0.021 | 0.0035 ± 0.037 | -0.0025 ± 0.026 | -0.0095 ± 0.0092 | -0.033 ± 0.014 | -0.0365 ± 0.016 | -0.028 ± 0.0085 | 0.0135 ± 0.093 | 0.0095 ± 0.023 | -0.0305 ± 0.0064 | -0.0215 ± 0.025
LPS:SRB | -0.008 ± 0.0014 | -0.0025 ± 0.0064 | 0.0065 ± 0.0064 | -0.005 ± 0.0085 | 0.006 ± 0.011 | -0.035 | 0.0035 ± 0.0078 | 0.0035 ± 0.011 | -0.003 ± 0.014 | -0.011 ± 0.0014 | -0.008 ± 0.011 | 0.006 ± 0.021 | -0.008 ± 0.0014 | -0.006 ± 0.0042 | -0.0015 ± 0.015 | -0.009 ± 0.018 | -0.007 ± 0.021 | -0.001 ± 0.0057
BF4T:CXCL8/IL-8 | -0.0125 ± 0.025 | -0.0155 ± 0.052 | -0.019 ± 0.031 | 0.0025 ± 0.016 | 0.002 ± 0.034 | 0 | -0.0005 ± 0.00071 | 0.008 ± 0.023 | 0.023 ± 0.031 | 0.005 ± 0.025 | 0.0175 ± 0.019 | 0.028 ± 0.016 | 0.016 ± 0.051 | 0.0355 ± 0.04 | 0.0205 ± 0.03 | 0.0005 ± 0.052 | -0.0105 ± 0.047 | 0.0205 ± 0.0078
SAg:CD62E/E-Selectin | -0.0265 ± 0.0021 | -0.0185 ± 0.032 | -0.007 ± 0.0085 | 0.004 ± 0.0014 | 0.0265 ± 0.00071 | -0.049 | -0.019 ± 0.013 | 0.003 ± 0.0099 | 0.0065 ± 0.018 | -0.0015 ± 0.0064 | 0.012 ± 0.0057 | 0.006 ± 0.0014 | -0.0075 ± 0.0021 | -0.0205 ± 0.013 | -0.02 ± 0.0057 | -0.004 ± 0.0057 | 0.0315 ± 0.013 | 0.033
LPS:CCL2/MCP-1 | 0.001 ± 0.023 | -0.0025 ± 0.015 | 0.0135 ± 0.013 | -0.0005 ± 0.021 | -0.003 ± 0.0028 | -0.023 | 0.006 ± 0.021 | 0.017 ± 0.013 | 0.005 ± 0.071 | 0.0315 ± 0.032 | 0.0145 ± 0.0078 | 0.0155 ± 0.029 | 0.002 ± 0.0014 | -0.0125 ± 0.0078 | -0.0005 ± 0.018 | 0.0025 ± 0.0021 | 0.007 ± 0.016 | 0.039 ± 0.0057
3C:CXCL8/IL-8 | -0.004 ± 0.0014 | 0.0045 ± 0.012 | 0.023 ± 0.044 | 0.018 ± 0.011 | 0.022 ± 0.0085 | 0.08 | -0.005 ± 0.0028 | 0.0005 ± 0.019 | 0.017 ± 0.025 | -0.01 ± 0.017 | -0.144 ± 0.19 | -0.715 ± 0.14 | 0.0125 ± 0.032 | 0.0115 ± 0.021 | 0.0265 ± 0.0064 | 0.0295 ± 0.044 | 0.027 ± 0.02 | 0.0555 ± 0.0064
